Measurements taken from patent publication US9072297B2, “Herbicidal composition” (ISHIHARA SANGYO KAISHA, LTD., priority 2010, dated 2015).

How the values were obtained:
Type in all cases: in vivo
[1] = test system: crabgrass (Digitaria ciliaris (Retz.) Koel); test: Test Example 6: foliar application pot test, crabgrass 3.8 to 4.0 leaf stage; conditions: read-out: Growth inhibition rate (%) of crabgrass Measured value
Procedure: (§1) Growth inhibition rate (%)= • 0:equivalent to the non-treated area to 100:complete kill
(§2) Upland field soil was put into a 1/1,000,000 ha pot, and seeds of crabgrass (Digitaria ciliaris (Retz.) Koel) were sown. When crabgrass reached 3.8 to 4.0 leaf stage, a predetermined amount of each herbicidal composition was diluted with water (corresponding to 200 L/ha) containing 0.25 vol % of an agricultural adjuvant (tradename: Agral, manufactured by Syngenta) and applied by foliar application with a small sprayer.
(§3) On the 28th day after application, the state of growth of the plant was visually observed.

[2] = test system: surinam grass (Brachiaria decumbens Stapf.); test: Test Example 2: foliar application pot test, surinam grass; conditions: Urochloa decumbens, read-out: Growth inhibition rate (%) of surinam grass Measured value
Procedure: as §1
as §2, with “surinam grass (Brachiaria decumbens Stapf.)” for “crabgrass (Digitaria ciliaris (Retz.) Koel)”, “the surinam grass” for “crabgrass”, “2.8” for “3.8”, “3.2” for “4.0”
as §3

[3] = test system: field bindweed (Convolvulus arvensis L.); test: Test Example 4: soil application pot test, field bindweed; conditions: read-out: Growth inhibition rate (%) of field bindweed Measured value
Procedure: as §1
(§4) Upland field soil was put into a 1/1,000,000 ha pot, and seeds of field bindweed (Convolvulus arvensis L.) were sown. On the day after application, a predetermined amount of each herbicidal composition was diluted with water corresponding to 200 L/ha and applied by soil application with a small sprayer.
(§5) On the 42nd day after application, the state of growth of the plant was visually observed.

[4] = test system: surinam grass (Brachiaria decumbens Stapf.); test: Test Example 3: soil application pot test, surinam grass; conditions: Urochloa decumbens, read-out: Growth inhibition rate (%) of surinam grass Measured value
Procedure: as §1
as §4, with “surinam grass (Brachiaria decumbens Stapf.)” for “field bindweed (Convolvulus arvensis L.)”
as §5

[5] = test system: guineagrass (Panicum maximum Jacq.); test: Test Example 1: foliar application pot test, guineagrass; conditions: Megathyrsus maximus, read-out: Growth inhibition rate (%) of guineagrass Measured value
Procedure: (§6) Upland field soil was put into a 1/1,000,000 ha pot, and seeds of various plants were sown. When the plants reached certain leaf stages (guineagrass (Panicum maximum Jacq.): 4.5 to 5.0 leaf stage, crabgrass (Digitaria ciliaris (Retz.) Koel): 3.0 to 4.2 leaf stage), a predetermined amount of each herbicidal composition was diluted with water (corresponding to 200 L/ha) containing 0.25 vol % of an agricultural adjuvant (tradename: Agral, manufactured by Syngenta) and applied by foliar application with a small sprayer.
(§7) On the 28th day after application, the state of growth of the plants were visually observed and evaluated in accordance with the following evaluation standard. The growth inhibition rate (%) (measured value) and the growth inhibition rate (%) (calculated value) calculated by the Colby's formula are shown in Tables 1 and 2.
as §1

[6] = test system: crabgrass (Digitaria ciliaris (Retz.) Koel); test: Test Example 1: foliar application pot test, crabgrass; conditions: read-out: Growth inhibition rate (%) of crabgrass Measured value
Procedure: as §6, §7, §1

[7] = test system: crabgrass (Digitaria ciliaris (Retz.) Koel); test: Test Example 7: foliar application pot test, crabgrass 4.5 leaf stage; conditions: read-out: Growth inhibition rate (%) of crabgrass Measured value; for inhibition at 300 g/ha: foliar
Procedure: as §1
as §2, with “4.5” for “3.8 to 4.0”
as §3

[8] = test system: crabgrass (Digitaria ciliaris (Retz.) Koel); test: Test Example 5: foliar application pot test, crabgrass (MonFast adjuvant); conditions: read-out: Growth inhibition rate (%) of crabgrass Measured value
Procedure: as §1
as §2, with “3.0” for “3.8”, “4.2” for “4.0”, “0.2” for “0.25”, “MonFast,” for “Agral,”, “Monsanto)” for “Syngenta)”
as §3

`CN(C)C(=O)Nc1ccc(Cl)c(Cl)c1` [Diuron, 3-(3,4-dichlorophenyl)-1,1-dimethylurea] showed an inhibition at 3000 g/ha ([1]; foliar) of 80%, an inhibition at 1250 g/ha ([2]; foliar) of 0% and an inhibition at 1250 g/ha ([3]; soil) of 0%.
Work on `CNC(=O)N(C)c1nnc(C(C)(C)C)s1` [Tebuthiuron, 1-(5-tertiarybutyl-1,3,4-thiadiazol-2-yl)-1,3-dimethylurea] yielded an inhibition at 500 g/ha ([4]; soil) of 28%, an inhibition at 500 g/ha ([5]; foliar) of 15% and an inhibition at 500 g/ha ([6]; foliar) of 0%. It also gave an inhibition at 300 g/ha [7] of 17%.
In the case of `COc1cc(OC)nc(NC(=O)NS(=O)(=O)c2ncccc2C(F)(F)F)n1` [Flazasulfuron, 1-(4,6-dimethoxypyrimidin-2-yl)-3-(3-trifluoromethyl-2-pyridylsulfonyl)urea], the inhibition at 25 g/ha ([4]; dose 25 g/ha, soil application, 42nd day after application) is reported as 70%, the inhibition at 20 g/ha ([5]; dose 20 g/ha, foliar application, 4.5 to 5.0 leaf stage, 28th day after application) is reported as 90% and the inhibition at 37.5 g/ha ([5]; dose 37.5 g/ha, foliar application, 4.5 to 5.0 leaf stage, 28th day after application) is reported as 92%. For the same compound, the inhibition at 30 g/ha ([8]; dose 30 g/ha, foliar application, 3.0 to 4.2 leaf stage, MonFast, 28th day after application) was 50%, the inhibition at 40 g/ha ([8]; dose 40 g/ha, foliar application, 3.0 to 4.2 leaf stage, MonFast, 28th day after application) was 58% and the inhibition at 15 g/ha ([1]; dose 15 g/ha, foliar application, 3.8 to 4.0 leaf stage, Agral, 28th day after application) was 40%. It also gave an inhibition at 25 g/ha ([6]; dose 25 g/ha, foliar application, 3.0 to 4.2 leaf stage, Agral, 28th day after application) of 40%, an inhibition at 37.5 g/ha ([2]; dose 37.5 g/ha, foliar application, 2.8 to 3.2 leaf stage, 28th day after application) of 45% and an inhibition at 100 g/ha ([7]; dose 100 g/ha, foliar application, 4.5 leaf stage, Agral, 28th day after application) of 73%. It also gave an inhibition at 37.5 g/ha ([3]; dose 37.5 g/ha, soil application, 42nd day after application) of 25%.
`CON(C)C(=O)Nc1ccc(Br)cc1` [Metobromuron, 3-(4-bromophenyl)-1-methoxy-1-methylurea] showed an inhibition at 500 g/ha ([8]; foliar) of 0%, an inhibition at 1000 g/ha ([8]; foliar) of 0% and an inhibition at 300 g/ha [7] of 5%.
